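Assay format: 96-well plates, 48-hour exposure. The concentration for 50% growth inhibition is given as GI50. TGI marks complete inhibition of growth.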
Columns and labels:
Assay in all cases: NCI anticancer screen, dose series, 48 h
UO-31 renal = tested on: UO-31 renal
MDA-MB-435 = tested on: MDA-MB-435
MCF7 breast = tested on: MCF7 breast
A498 renal = tested on: A498 renal
SF-295 CNS = tested on: SF-295 CNS
MOLT-4 leukemia = tested on: MOLT-4 leukemia
HCC-2998 colon = tested on: HCC-2998 colon
HL-60(TB) leukemia = tested on: HL-60(TB) leukemia
SW-620 colon = tested on: SW-620 colon
CCRF-CEM leukemia = tested on: CCRF-CEM leukemia

Row | SMILES | TGI (UO-31 renal) [µM] | TGI (MDA-MB-435) [µM] | TGI (MCF7 breast) [µM] | TGI (A498 renal) [µM] | TGI (SF-295 CNS) [µM] | TGI (MOLT-4 leukemia) [µM] | TGI (HCC-2998 colon) [µM] | TGI (HL-60(TB) leukemia) [µM] | TGI (SW-620 colon) [µM] | TGI (CCRF-CEM leukemia) [µM] | GI50 (UO-31 renal) [µM] | GI50 (MDA-MB-435) [µM] | GI50 (MCF7 breast) [µM] | GI50 (A498 renal) [µM] | GI50 (SF-295 CNS) [µM] | GI50 (MOLT-4 leukemia) [µM] | GI50 (HCC-2998 colon) [µM] | GI50 (HL-60(TB) leukemia) [µM] | GI50 (SW-620 colon) [µM] | GI50 (CCRF-CEM leukemia) [µM]
1 | COc1cc(OC)c2nc(C)c3c(c2c1)SCC3 | 48.8 | 58.3 | 36.2 | 36.2 | 65.9 | > 100 | > 100 | > 100 | > 100 | > 100 | – | – | – | – | – | – | – | – | – | –
2 | COc1cc(C(=O)c2c(-c3ccccc3)oc3c(OC)cccc23)cc(OC)c1OC | > 100 | 0.0577 | > 100 | 0.0696 | 1.96 | > 100 | > 100 | 0.2 | > 100 | > 100 | 0.119 | 0.0216 | 0.153 | 0.0212 | 0.0363 | 0.345 | 0.211 | 0.0448 | 0.0497 | 0.0532
3 | COc1cccc(-c2c[nH]c3c(N/N=C/c4ccncc4)ncnc23)c1 | > 23.7 | 6.9 | 5.91 | 7.7 | > 25 | 19.6 | 15.8 | 7.35 | 5.39 | > 25 | 1.75 | 1.83 | 1.93 | 1.96 | 3.5 | 4.42 | 4.36 | 1.7 | 1.5 | 1.93
4 | Cn1ncnc1[C@H]1c2n[nH]c(=O)c3cc(F)cc(c23)N[C@@H]1c1ccc(F)cc1 | > 100 | > 100 | > 100 | > 100 | > 19.9 | > 100 | > 100 | > 100 | > 100 | > 100 | 6.5 | > 100 | 0.701 | 28.6 | 0.44 | 5.07 | > 100 | 10.3 | 25.9 | 1.27
5 | O=C1Nc2ccc(Br)cc2C1=Nc1cccnc1 | 29.7 | 28.9 | 59.3 | > 100 | > 100 | 64.5 | 40 | 48.8 | 46.4 | 57.4 | – | – | – | – | – | – | – | – | – | –
6 | C#CC#CC#CC#CC#CC#CC#CC#CCC1OCC(COC(=O)O[C@@H](C(=O)O[C@H]2C[C@@]3(O)[C@@H](OC(=O)c4ccccc4)[C@@H]4[C@]5(OC(C)=O)CO[C@@H]5C[C@H](O)[C@@]4(C)C(=O)[C@H](OC(C)=O)C(=C2C)C3(C)C)[C@@H](NC(=O)c2ccccc2)c2ccccc2)O1 (some centres undefined) | > 33.3 | 0.0434 | > 33.3 | – | > 11.6 | > 33.3 | > 33.3 | – | > 33.3 | > 33.3 | > 33.3 | 0.0167 | 0.0461 | 0.191 | 0.581 | 0.212 | 0.287 | 0.099 | 0.104 | 0.191
7 | Nc1ncnc2c1N=C(c1ccc3c(c1)OCO3)CC(c1ccc([N+](=O)[O-])cc1)N2 (centres undefined) | > 100 | > 100 | > 100 | 90 | > 100 | > 100 | > 100 | > 100 | > 100 | – | 18.1 | 62 | 31.5 | 25.1 | 64.2 | 23.7 | 66.1 | 13.1 | 53.2 | –
8 | COc1cccc(N2C(=O)C3c4[nH]c5ccccc5c4C4CCCC4C3C2=O)c1 (centres undefined) | – | > 10 | > 10 | 5.1 | > 10 | > 10 | > 10 | > 10 | > 10 | > 10 | – | – | – | – | – | – | – | – | – | –
9 | O=C1c2cc3c(cc2[C@@H]2[C@H]1c1ccc([N+](=O)[O-])cc1C(=O)N2CCCBr)OCO3 | > 100 | 0.219 | < 0.01 | < 0.01 | – | 0.0541 | 0.117 | > 100 | 3.64 | – | < 0.01 | < 0.01 | < 0.01 | < 0.01 | < 0.01 | < 0.01 | < 0.0125 | < 0.01 | < 0.01 | –
10 | NCCCC[C@@H]1NC(=O)[C@H]2CCCN2C(=O)[C@H](Cc2ccccc2)CNC(=O)[C@H](Cc2ccccc2)NC1=O | > 37.5 | > 37.5 | > 37.5 | > 37.5 | > 37.5 | > 37.5 | > 37.5 | > 37.5 | > 37.5 | – | > 37.5 | > 37.5 | > 37.5 | > 37.5 | > 37.5 | > 37.5 | > 37.5 | > 11.3 | > 37.5 | –
11 | CC(C)CCCC(C)[C@H]1CCC2[C@@H]3CCC4Cc5nc6c(nc5C[C@]4(C)C3CC[C@@]21C)CC1CC[C@@H]2C(CC[C@@]3(C)C2CC[C@@H]3C(C)CCCC(C)C)[C@@]1(C)C6 (some centres undefined) | > 100 | > 100 | > 100 | > 100 | > 100 | > 100 | – | > 100 | > 100 | > 100 | – | – | – | – | – | – | – | – | – | –

— PubChem BioAssay (NCI)
